US8859232B2, “Genetically encoded photomanipulation of protein and peptide activity” (The University of North Carolina at Chapel Hill, priority 2009, dated 2014)

Test system: MEF cells expressing mVenus-tagged PA-Rac1
Test: Inhibitor studies: localized activation of PA-Rac1 in inhibitor-treated MEF cells
Assay type: cell-based, mouse
Conditions: Blebbistatin 1 μM, Y-27632 10 μM; for effect of inhibitor on PA-Rac1 light-induced protrusion: FIG. 6C; for effect of inhibitor on the ability of Rac1 to specify the direction of movement: FIG. 6D
Protocol: Inhibitor studies: MEF cells expressing mVenus-tagged PA-Rac1 were incubated with 1 μM myosin II inhibitor Blebbistatin, 1 μM MLCK inhibitor ML-7, or 10 μM ROCK inhibitor Y-27632 (Calbiochem). Cells underwent the cell shape changes previously described (Katsumi et al., J. Cell Biol. 158:153 (2002)) and then reached a stable state within 30 minutes. After this cells were irradiated with the 458 nm laser at a 10-μm spot to induce PA-Rac activation.
Protrusion/retraction analysis: Fluorescence images of MEF cells expressing mVenus-tagged PA-Rac1 and its mutants were masked based on intensity thresholding to produce binary images. Regions of protrusion were isolated by subtracting the binary image at a given time point from that at time 0. Conversely the binary images of retraction were obtained. Areas not part of protrusions or retractions, those that overlapped the time 0 image, were obtained by subtracting the above two images from that at time 0. Each binary image was assigned a different color: red=protrusion, blue=retraction, green=area overlapping with time 0, and white=background. These operations were carried out using MetaMorph software.
Polarity index calculation: To obtain the polarity index (cos θ) of the migrating MEF cells, X and Y coordinates were obtained for the centroid before movement (x0,y0), the centroid after movement (x1,y1), and for the center of the irradiation spot (x2,y2), using MetaMorph software. The cos and sin values of the angles were obtained using simple triangle calculations. First two angles were defined using an arbitrarily selected horizontal line θ1=angle between the arbitrary line and the line from (x0,y0) to (x1,y1), and θ2=angle between the arbitrary line and the line between (x0,y0) and (x2,y2). The cos used to characterize polarity (see FIG. 6) was obtained using the following formula: cos θ=cos(θ1−θ2)=cos θ1 cos θ2+sin θ1 sin θ2

SMILES	effect of inhibitor on PA-Rac1 light-induced protrusion	effect of inhibitor on the ability of Rac1 to specify the direction of movement
Cc1ccc2c(c1)C(=O)C1(O)CCN(c3ccccc3)C1=N2 (stereo not shown) [Blebbistatin]	little effect	randomization of movement
C[C@@H](N)[C@H]1CC[C@H](C(=O)Nc2ccncc2)CC1 [Y-27632]	strongly reduced protrusion	little effect
